Results on eleven molecules are retold here after patent US20210246128A1, “BICYCLE TOPOISOMERASE I INHIBITING COMPOUNDS, PROCESS FOR PREPARATION AND USE THEREOF” (Council of Scientific & Industrial Research, priority 2018, published 2021).

SMILES strings stand for the structures. ≈ marks a conversion by molar mass, not a printed value. Read-outs that look alike come from different tables or passages of the source.

As a reminder, the melting point is the temperature, or range, at which the solid turns liquid. As usually defined, the IC50 is the point on the concentration scale where inhibition reaches its midpoint. By efflux ratio is commonly meant the permeability from basolateral to apical divided by that in the opposite direction, in the common usage. For orientation: logD means lipophilicity at a set pH, counting ionised and neutral species. One may read the inhibition as the share of the control response that was lost under treatment.

Series [1] concerns calf thymus (CT) DNA. Nature of the series: Ethidium bromide (EtBr) displacement assay. Format: binding. The note with it: 1 μM EtBr, 5 nM CT DNA, 0-200 μM compound.
A short description of series [2]: Solubility assay (pH 7.4 pION buffer, UV). The class given is physicochemical. The note with it: pH 7.4 pION buffer, aqueous buffer, kinetic from dmso stock; pH 7.4 buffer, 18 hours incubation; read-out: Avg. Solubility (μg/mL) at pH 7.4. As for the experimental part:
5 μL of 20 mM DMSO stock from the stock plate was added to the reaction deep well plate containing 495 μL of pH 7.4 pION buffer (including DMSO control) respectively and the samples were mixed and incubated for 18 hours. The plate was sealed well during the incubation process. The DMSO content in the sample was <1.0%. The concentration in deep well plates was 200 μM. 4 μL of 20 mM stock (including DMSO control) was added to 996 μL of acetonitrile to prepare the working stock plate. 75 μL of working stock was added to 75 μL of blank buffer and read on spectrophotometer as reference plate at 240 nm. At the end of the incubation period, 100 μL of sample from storage plate was vacuum filtered using a filter plate. This step wets the filters and the filtrate was discarded. Another 200 μL of the sample from deep well plate was vacuum filtered in to a new filter collection plate. 75 μL of the filtrate from the filter collection plate was transferred to a UV sample plate. 75 μL of acetonitrile was added to this UV plate. The solution was mixed and the spectrum was read using the UV spectrophotometer at 240 nm. Plates were read on spectramax using SoftMax Pro software version 5.3.

Series [3] addresses T1, recombinant human TopI (HTopI) (Homo sapiens, UniProt P11387).
T1 sequence (P11387 1-765): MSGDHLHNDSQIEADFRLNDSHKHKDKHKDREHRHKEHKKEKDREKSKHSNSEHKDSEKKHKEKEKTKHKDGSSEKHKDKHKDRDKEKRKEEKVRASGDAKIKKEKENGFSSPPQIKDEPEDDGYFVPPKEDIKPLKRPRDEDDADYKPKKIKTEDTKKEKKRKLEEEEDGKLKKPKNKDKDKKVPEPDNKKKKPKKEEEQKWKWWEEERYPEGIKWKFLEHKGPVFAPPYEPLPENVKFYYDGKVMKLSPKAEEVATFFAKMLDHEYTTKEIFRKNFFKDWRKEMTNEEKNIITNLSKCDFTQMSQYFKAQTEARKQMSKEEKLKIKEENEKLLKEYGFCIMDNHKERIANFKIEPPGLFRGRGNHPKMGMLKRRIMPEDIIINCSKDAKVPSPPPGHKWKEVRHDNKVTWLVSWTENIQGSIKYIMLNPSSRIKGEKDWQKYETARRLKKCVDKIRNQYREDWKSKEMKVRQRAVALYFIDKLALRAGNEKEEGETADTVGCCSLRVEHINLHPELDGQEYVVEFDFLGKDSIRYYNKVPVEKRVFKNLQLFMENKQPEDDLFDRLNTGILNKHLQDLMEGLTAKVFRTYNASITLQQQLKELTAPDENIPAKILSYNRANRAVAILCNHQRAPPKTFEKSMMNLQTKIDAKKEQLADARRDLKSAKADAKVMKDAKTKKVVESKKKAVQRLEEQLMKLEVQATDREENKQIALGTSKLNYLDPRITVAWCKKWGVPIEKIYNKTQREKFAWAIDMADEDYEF
Nature of the series: Gel based plasmid DNA relaxation assay with recombinant TopI (in vitro). The class given is biochemical. As to conditions: recombinant human TopI; for IC50: plasmid DNA relaxation. As for the experimental part: (§1) Human ToPI Inhibition in Plasmid DNA Relaxation Assays with Recombinant TopI (In Vitro) or MCF7 Cell Lysates (Ex Vivo)
(§2) Relaxation of supercoiled pBSSK(^+) DNA with recombinant human TopI (HTopI) at a molar ratio of 3:1 at 37° C. for 30 minutes was performed

A short description of series [4]: Caco-2 permeability (21 day culture of Caco-2 cell monolayer). The class given is in vitro ADME. As to conditions: human; for efflux ratio at 120 min, 10 μM: Caco-2, pH 7.4; for recovery at 120 min, 10 μM: Caco-2, pH 7.4, Caco-2; for Papp A→B at 120 min, 10 μM / Papp B→A at 120 min, 10 μM: pH 7.4, Caco-2, 10 μM; for Papp A→B at 120 min, 10 μM: read-out: Papp Apical to Basal; for Papp B→A at 120 min, 10 μM: read-out: Papp Basal to Apical. On the procedure:
5 mL of 100 mM sodium pyruvate, 5 mL of 10× non-essential amino acids, 5 mL of penstrep were added to 100 mL of heat inactivated foetal bovine serum to 385 mL of DMEM aseptically and mixed thoroughly. One vial of Hank's balanced salt (Sigma-H1387) was dissolved in 900 mL of milli Q water; adjusted the pH to 7.4 and made up the volume to 1000 mL with the same. The solution was filter sterilized and stored at 4° C. Stock solution of test compound (10 mM) was prepared in DMSO. 10 mM stock was diluted with HBSS Buffer to a final concentration of 10 μM.
250 μL of DMEM was added to the basal compartment of 96 well multi-screen Caco-2 plate and seeded 12000 cells/well (0.16×10^6 cells/ml) in all the apical wells required and one well with only media as blank without cells, placed the Caco-2 plate in CO2 incubator at 37° C. for proliferation of cells.
On the day of assay, medium was removed and washed twice with HBSS Buffer and incubated with HBSS buffer for 30 min in an incubator and wells with TEER values >230 ohm·cm^2 were selected for the incubation. 75 μL of test compound was added to apical wells and 250 μL of HBSS buffer with 2% BSA was added to basal wells. 25 μL of basal samples was collected at 120 min and processed as stated below.
250 μL of test compound was added to basal wells and 75 μL of HBSS buffer with 2% BSA was added to apical wells. 25 μL of apical samples was collected at 120 min and processed as stated below.
Single point calibration curve in HBSS buffer with 2% BSA was used. Donor samples were diluted 1:1 with HBSS containing 2% BSA and receiver samples were diluted with 1.1 HBSS buffer and precipitated with 200 μL of acetonitrile containing internal standard and vortexed for 5 min @ 1000 rpm, centrifuged at 4000 rpm for 10 min. Finally 100 μL of supernatant was diluted with 200 μL of water and submitted for LC-MS/MS analysis.
(Passage across Caco-2 layers is used to estimate intestinal permeability.)

The target in series [5] is T2, endogenous TopI from the whole cell extracts of human breast adenocarcinoma (MCF7) cell (Homo sapiens, UniProt P11387).
T2 construct: TopI enzyme in the extract is conserved in its native structure among a plethora of other cellular proteins; endogenous in cells; host or cells: MCF7 whole cell extract
T2 sequence (P11387 1-765): T1 sequence (P11387 1-765)
Kind of series: Plasmid DNA relaxation assay with MCF7 cell lysates (ex vivo). Format: biochemical. As to conditions: MCF7 cell lysates as source of TopI. As for the experimental part:
as §1, §2
cellular extracts were utilized as a source of TopI (ex vivo) in plasmid DNA relaxation assays. TopI enzyme in the extract is conserved in its native structure among a plethora of other cellular proteins.

Series [6] in a line: Plasma stability assay. The class given is in vitro ADME. The note with it: pH 7.4, 37° C., 1 μM. On the procedure: The stock solution of 10 mM of test compound in DMSO was prepared and stored at 4° C. 25 μM stock of test compound was prepared in acetonitrile: water by diluting from 10 mM stock (i.e. 2.5 μL of 10 mM stock solution was added to 997.5 μL of acetonitrile: water (50:50). The frozen plasma was thawed at room temperature and centrifuged at 1400×RCF (relative centrifugal force) 4° C., for 15 minutes. Approximately 90% of the clear supernatant fraction was transferred to a separate tube and was used for the assay.
For 0 min samples, plasma was heat inactivated at 56° C. for 45 min. To 72 μL of heat inactivated plasma, 3 μL of 25 μM test compound was added. A 25 μL aliquot of the mixture was taken and crashed with 200 μL of acetonitrile containing internal standard and further processed along with other time points. For other time point samples, final working stock of 1 μM was prepared by diluting in plasma (i.e. 8 μL of 25 μM acetonitrile:water stock was added to 192 μL of plasma). 200 μL of plasma containing the test compound was incubated for 2 hrs at 37° C. in shaker water bath with gentle shaking. 25 μL aliquot of sample at 0, 15, 30, 60 and 120 min was precipitated immediately with 200 μL of acetonitrile containing internal standard and centrifuged at 4000×RCF, 4° C. for 20 minutes. 150 μL of supernatant was diluted with 150 μL of water and analyzed on LC-MS/MS.

Series [7] can be described thus: Lipophilicity assay (octanol/buffer Log D). As to conditions: n-octanol/sodium phosphate buffer, pH 7.4.
Experimental: 1.56 g NaH2PO4.2H2O was dissolved in 0.5 L water in a 1 L beaker. After adjusting pH to 7.4 using NaOH solution, the volume was made up to 1 L. Equal volumes of sodium phosphate buffer (10 mM, pH 7.4) and n-octanol were added to a separation funnel and mixed thoroughly by shaking and inverting the funnel several times. The two layers were allowed to separate for 2 days and then dispensed in two separate glass bottles. 10 mM stock solution was prepared in 100% DMSO and stored at 4° C. 500 μL of organic phase (1-octanol) was added to each well of a 2 mL deep well plate, followed by 500 μL of buffer and 15 μL of test substance was added. The plate was vortexed for 1 hr on a plate shaker at 1200 rpm. After incubation, the samples were allowed to equilibrate for 20 min and then centrifuged at 4000 rpm for 30 min for complete phase separation and analysed by LC-UV.
Log D=Log(area of octanol/area of buffer)
Mean, SD and % CV for each set of triplicates were calculated

Turning to `COc1cc([C@@H]2c3cc4c(cc3[C@@H](O[C@@H]3O[C@@H]5CO[C@@H](C)O[C@H]5[C@H](O)[C@H]3O)[C@H]3COC(=O)[C@H]23)OCO4)cc(OC)c1O` [etoposide], the “displacement of bound EtBr (DNA intercalation)” value in series [1] is listed as “unable to displace EtBr”.

With `CC(C(=O)O)c1ccc(-c2ccccc2)c(F)c1` (centres unmarked) [Flurbiprofen, reference compound], in series [2], the solubility at 18 h turned out to be 54 µg/mL (≈ 221 µM).

For `Cc1ccc(-c2ccc3ncc(-c4nnco4)c(NCCN4CCOCC4)c3c2)cc1[N+](=O)[O-]` [Compound 10, 6-(4-methyl-3-nitrophenyl)-N-(2-morpholinoethyl)-3-(1,3,4-oxadiazol-2-yl)quinolin-4-amine], the melting point came out at 222 °C.

`COc1cc(NS(C)(=O)=O)ccc1Nc1c2ccccc2nc2ccccc12` [m-AMSA]: the “displacement of bound EtBr (DNA intercalation)” value in series [1] is reported as “capability to dislodge the bound fluorophore (EtBr) at 50 μM concentration”.

Regarding `CCCSc1ccc2nc(NC(=O)OC)[nH]c2c1` [Albendazole, reference compound], the solubility at 18 h in series [2] worked out at 3.31 µg/mL (≈ 12.5 µM).

Regarding `N#Cc1ccc(-c2ccc3ncc(-c4nnco4)c(NCCN4CCOCC4)c3c2)cc1` [Compound 11, 4-(4-(2-morpholinoethylamino)-3-(1,3,4-oxadiazol-2-yl)quinolin-6-yl)benzonitrile], the melting point came to 190 °C.

As to `COc1ccc(-c2ccc3ncc(-c4nnco4)c(NCCCn4ccnc4)c3c2)cn1` [Compound 33, N-(3-(1H-imidazol-1-yl)propyl)-6-(6-methoxypyridin-3-yl)-3-(1,3,4-oxadiazol-2-yl)quinolin-4-amine], the IC50 in series [3] was 0.017 µM. Besides, in series [4], the efflux ratio at 120 min, 10 μM turned out to be 4.01; the Papp A→B at 120 min, 10 μM is 7.89 ×10⁻⁶ cm/s; the Papp B→A at 120 min, 10 μM came out at 31.5 ×10⁻⁶ cm/s. Further, the recovery at 120 min, 10 μM in series [4] (read-out: A to B % Recovery) amounted to 83.9%. In series [4] (read-out: B to A % Recovery), the recovery at 120 min, 10 μM is 92%. Also, the solubility at 18 h in series [2] came out at 27.9 µg/mL (≈ 65.4 µM). This molecule yielded an IC50 in series [5] of 0.625 µM. The “Mean % remaining at 2 hrs in human Plasma” value in series [6] is on record as 102.28%. Moreover, in series [7], the pH-dependent lipophilicity (logD) amounted to 2.79.

On to `c1cncc(-c2ccc3ncc(-c4nnco4)c(NCCCn4ccnc4)c3c2)c1` [Compound 30, N-(3-(1H-imidazol-1-yl)propyl)-3-(1,3,4-oxadiazol-2-yl)-6-(pyridin-3-yl)quinolin-4-amine], for which the IC50 in series [3] worked out at 0.397 µM. In series [4], the efflux ratio at 120 min, 10 μM amounted to 40; the Papp A→B at 120 min, 10 μM came out at 0.95 ×10⁻⁶ cm/s; the Papp B→A at 120 min, 10 μM was 38.3 ×10⁻⁶ cm/s. In series [4] (read-out: A to B % Recovery), the recovery at 120 min, 10 μM turned out to be 84.8%. The recovery at 120 min, 10 μM in series [4] (read-out: B to A % Recovery) was 74.2%. The solubility at 18 h in series [2] was 44 µg/mL (≈ 111 µM). In addition, in series [5], half-maximal inhibition (IC50) required 1.25 µM. In series [6], the “Mean % remaining at 2 hrs in human Plasma” value is on record as 14.62%. In series [7], the pH-dependent lipophilicity (logD) turned out to be 3.54.

For `COc1ccc(-c2ccc3ncc(-c4nnco4)c(NCCN4CCOCC4)c3c2)cc1OC` [Compound 8, 6-(3,4-dimethoxyphenyl)-N-(2-morpholinoethyl)-3-(1,3,4-oxadiazol-2-yl)quinolin-4-amine], the melting point was found to be 116 °C.

Consider `COc1cccc(-c2ccc3ncc(-c4nnco4)c(NCCCn4ccnc4)c3c2)c1` [Compound 82, N-(3-(1H-Imidazol-1-yl)propyl)-6-(3-methoxyphenyl)-3-(1,3,4-oxadiazol-2-yl)quinolin-4-amine], for which the melting point amounted to 96 °C. Also, the IC50 in series [3] came to 1.05 µM. In series [5], this molecule gave an IC50 of 4.11 µM.

Take `COc1ccc(-c2ccc3ncc(-c4nnco4)c(NCCN4CCOCC4)c3c2)cc1` [Compound 9, 6-(4-methoxyphenyl)-N-(2-morpholinoethyl)-3-(1,3,4-oxadiazol-2-yl)quinolin-4-amine]: the melting point stood at 156 °C. Also, in series [3] (at 10 μM, read-out: In vitro inhibition at 10 μM), the inhibition at 10 µM was determined as 45%.
